From ChEMBL document CHEMBL5058564, “EUbOPEN Chemogenomics Library 2 (Incucyte)” (2022)

Assays:
Assay type in all cases: toxicity, cell-based
U2OS = experiment: Incucyte cell viability with U2OS; conditions: human, 10 µM, compound concentration 10 uM
Fibroblast = experiment: Incucyte cell viability with human fibroblast; conditions: 10 µM, compound concentration 10 uM
HEK-293T = experiment: Incucyte cell viability with HEK293T; conditions: human, 10 µM, compound concentration 10 uM
[1] = 0 h, replicate number 1, timepoint 0 hours
[2] = 6 h, replicate number 1, timepoint 6 hours
[3] = 6 h, replicate number 2, timepoint 6 hours
[4] = 12 h, replicate number 1, timepoint 12 hours
[5] = 12 h, replicate number 2, timepoint 12 hours
[6] = 18 h, replicate number 1, timepoint 18 hours
[7] = 18 h, replicate number 2, timepoint 18 hours
[8] = 24 h, replicate number 1, timepoint 24 hours
[9] = 24 h, replicate number 2, timepoint 24 hours
[10] = 0 h, replicate number 2, timepoint 0 hours
Note: unitless GR value; below 1 slowed growth and below 0 cell loss.

Structure (SMILES) | Growth Rate (U2OS; [1]) | Growth Rate (U2OS; [2]) | Growth Rate (U2OS; [3]) | Growth Rate (U2OS; [5]) | Growth Rate (U2OS; [6]) | Growth Rate (U2OS; [7]) | Growth Rate (U2OS; [8]) | Growth Rate (Fibroblast; [10]) | Growth Rate (Fibroblast; [2]) | Growth Rate (Fibroblast; [3]) | Growth Rate (Fibroblast; [4]) | Growth Rate (Fibroblast; [5]) | Growth Rate (Fibroblast; [6]) | Growth Rate (Fibroblast; [8]) | Growth Rate (Fibroblast; [9]) | Growth Rate (HEK-293T; [4]) | Growth Rate (HEK-293T; [5]) | Growth Rate (HEK-293T; [6]) | Growth Rate (HEK-293T; [8]) | Growth Rate (HEK-293T; [9]) | other results
CNC(=O)c1nn(C)c2c1C(C)(C)Cc1cnc(Nc3ccc(N4CCN(C)CC4)cc3)nc1-2 [MILCICLIB] | -0.33 | 0.35 | 0.23 | 0.29 | 0.23 | 0.38 | 0.21 | 1 | -0.13 | -0.21 | -0.1 | -0.07 | 0.24 | 0.34 | 0.33 | -0.22 | -0.34 | -0.12 | -0.02 | -0.01 | Growth Rate (U2OS; [4]): 0.17; Growth Rate (U2OS; [9]): 0.25; Growth Rate (Fibroblast; [7]): 0.23; Growth Rate (HEK-293T; [2]): -0.57; Growth Rate (HEK-293T; [3]): -0.72; Growth Rate (HEK-293T; [7]): -0.15
Cc1nc[nH]c1CCN.Cl | -0.24 | – | – | – | 0.91 | – | – | – | – | 0.14 | – | 0.83 | – | – | 0.86 | 0.91 | – | 0.92 | 0.81 | – | Growth Rate (U2OS; [10]): -1; Growth Rate (Fibroblast; [1]): 0.7; Growth Rate (Fibroblast; [7]): 0.58; Growth Rate (HEK-293T; [1]): 0.42; Growth Rate (HEK-293T; [10]): 0.64
CC(C)n1cnc2c(Nc3cccc(Cl)c3)nc(N[C@H]3CCCC[C@@H]3N)nc21 | – | -0.04 | 0.4 | 0.04 | 0.03 | -0.02 | 0.06 | – | 0.31 | -0.31 | 0.73 | 0.36 | 0.33 | 0.41 | – | -0.51 | -0.69 | -0.35 | -0.25 | -0.39 | Growth Rate (U2OS; [4]): -0.12; Growth Rate (U2OS; [9]): 0.05; Growth Rate (HEK-293T; [2]): -0.84; Growth Rate (HEK-293T; [3]): -0.89; Growth Rate (HEK-293T; [7]): -0.48
C[C@@H](OC[C@@]1(c2ccccc2)CC[C@]2(CCC(=O)N2)CN1)c1cc(C(F)(F)F)cc(C(F)(F)F)c1 [ROLAPITANT] | – | -0.32 | 0.54 | 0.49 | 0.79 | 0.63 | 0.84 | 0.28 | -0.04 | – | 0.02 | 0.68 | 0.57 | 0.27 | – | 0.83 | 0.57 | 0.88 | 0.89 | 1 | Growth Rate (U2OS; [9]): 0.64; Growth Rate (HEK-293T; [3]): 0.73; Growth Rate (HEK-293T; [7]): 0.81
COC(c1ccccc1)(c1ccccc1)[C@H](Oc1nc(C)cc(C)n1)C(=O)O [AMBRISENTAN] | -0.03 | – | – | – | – | 0.96 | – | 0.74 | 0.41 | 0.53 | 0.97 | 0.6 | – | – | – | 0.96 | – | 0.99 | 0.97 | – | Growth Rate (U2OS; [10]): -1; Growth Rate (HEK-293T; [10]): 0.79
O=C(Nc1cc(C(F)(F)F)ccc1N1CCCCC1)c1ccncc1 | -0.22 | 0.54 | 0.75 | 0.76 | 0.87 | 0.99 | 0.81 | 0.62 | -0.18 | – | 0.52 | – | 0.65 | 0.59 | 0.83 | – | 0.9 | – | – | 0.95 | Growth Rate (U2OS; [10]): 0.81; Growth Rate (U2OS; [4]): 0.85; Growth Rate (HEK-293T; [1]): 0.08; Growth Rate (HEK-293T; [10]): 0.52
Cc1nnc2n1-c1sc(CCC(=O)N3CCOCC3)cc1C(c1ccccc1Cl)=NC2 [APAFANT] | – | 0.99 | 0.76 | 0.88 | – | 0.75 | – | 0.77 | 0.26 | 0.74 | 0.81 | 0.51 | – | – | 0.95 | – | – | – | – | – | Growth Rate (U2OS; [9]): 0.93; Growth Rate (Fibroblast; [7]): 0.73; Growth Rate (HEK-293T; [1]): 0.99
CCc1cc2cc(NS(=O)(=O)c3ccc(C#N)cc3)ccc2n(CC)c1=O | -0.59 | 0.95 | – | 0.85 | 0.95 | 0.93 | 0.96 | – | 0.31 | -0.17 | 0.22 | 0.12 | 0.07 | -0.17 | 0.07 | 0.34 | 0.96 | 0.23 | 0.13 | 0.59 | Growth Rate (U2OS; [10]): -0.07; Growth Rate (Fibroblast; [1]): 0.94; Growth Rate (Fibroblast; [7]): 0.13; Growth Rate (HEK-293T; [1]): 1; Growth Rate (HEK-293T; [10]): 0.08; Growth Rate (HEK-293T; [2]): 0.21; Growth Rate (HEK-293T; [7]): 0.84
